Patent US20100069323A1, “COMPOSITION FOR APPLICATION TO SKIN OR MUCOSA” (priority 2006, published 2010)

Test system: rabbit corneal epithelial cell line SIRC
Assay: Evaluation of cytotoxicity of prepared alginic acid (Cell Counting Kit-8 viable cell detection)
Format: cell-based
Description: The test for toxicity of the alginic acid prepared above (Example 1 and Comparative Examples 1 and 2) to cells was carried out. First, an alginic acid solution was prepared by dissolving each alginic acid to a concentration of 0.2 or 2.0% (w/v) in a cell culture medium of medium 199 (GIBCO) supplemented with 10% (v/v) fetal bovine serum (Daiichi Kagaku Yakuhin). Then, rabbit corneal epithelial cell line SIRC (ATCC number: CCL-60) was plated at 2.0×10^5 cells/well in 48-well microtiter plate (Corning), and alginic acid solution prepared above was added to obtain a final concentration of 0.1 or 1.0% (w/v) of alginic acid, and the cells were subsequently cultured under the condition of 37° C., 5% CO2 and 90% relative humidity. […] After 1 hour, the absorbance (450 nm) of the dye developed by reacting with the viable cells was measured using a spectrophotometer (Thermo Electron). With the observed value of the absorbance, cell viability was calculated in the following equation, and the cytotoxicity of each alginic acid was evaluated.
Cell viability(%)=100×(absorbance of the group in which each alginic acid solution was added−absorbance of the medium containing a reagent for viable cell detection)/(absorbance of the control group−absorbance of the medium containing a reagent for viable cell detection) Equation 5

alginic acid [Comparative Example 2]
Cell viability: about 5% | microscopic observation of cells: lost their adhesive capacity and floated
